Values of other authors as cited in PMC4052326, “Alterporriol-Type Dimers from the Mangrove Endophytic Fungus, Alternaria sp. (SK11), and Their MptpB Inhibitions” (Marine Drugs, 2014).

Tested on: clinical multidrug-resistant M. tuberculosis strains
Conditions: result in words; cited from earlier work

Question: For 4-deoxybostrycin, which “inhibition against some clinical multidrug-resistant M. tuberculosis strains” value is on record?
Answer: good inhibition
